Assay results as given in PubChem BioAssay AID179 (DTP/NCI, 2004).
Active and inactive are the calls of the source.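 How the source made its calls: active means compounds giving half or more protection of infected cells from virus-caused growth loss, again on retest; inactive means the rest.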 Where a SMILES comes first, the peptide text is derived from it. [ ]: non-standard residue; d: D form. The star is where a group is joined. Phe(4-NO2) = N[CH](Cc1ccc([N+](=O)[O-])cc1)C(=O)O; Boc = CC(C)(C)OC(=O)*; OtBu = CC(C)(C)O*

System: CEM cells HIV-1 protection, formazan growth assay
Test: NCI AIDS Antiviral Assay
Details: for IC50: measured here: growth of uninfected CEM cells
Summary of the method: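 CEM (human) cells, HIV-1 infected vs uninfected, 5-point dosing, formazan growth read-out. Retest threshold 50% protection.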

## CC1(C)CCC[C@@]2(C)C1CCC1(C)C(CCc3ccoc3)/C(=C/OS(=O)(=O)O)CCC12 (stereo partly specified) (tested in a mixture with another compound)
  EC50: > 145 µM
  IC50: > 145 µM

## CC1(C)CC(=O)C(C(CC(c2ccccc2)c2cc3c(cc2O)OCO3)C2=C(O)CC(C)(C)CC2=O)=C(O)C1 (stereo unspecified)
  EC50: > 200 µM
  IC50: 112 µM

## O=C(NC/C(Cl)=C/Cl)Nc1c2ccccc2nc2ccccc12
  EC50: > 200 µM
  IC50: 21.9 µM

## O=C(CC(O)c1cccnc1)CC(O)c1cccnc1 (stereo unspecified)
  EC50: > 200 µM
  IC50: 2.82 µM

## Oc1ccc2c(c1)CC[N+]1=C2CCC2CCCC21 (stereo unspecified)
  EC50: > 209 µM
  IC50: > 209 µM

## O=C1O/C(=C(\Br)c2ccccc2)c2ccccc21
  EC50: > 200 µM
  IC50: 3.63 µM

## COc1ccccc1NC(=O)/C(=C\N1CCNC1=S)C(C)=O
  EC50: > 200 µM
  IC50: > 200 µM

## CCc1ccccc1NNc1cc(=O)[nH]c(=O)[nH]1
  EC50: > 200 µM
  IC50: 27.5 µM

## COc1ccc2c(c1)C/C(=C\c1ccc(O)c(OC)c1)C2=O
  EC50: > 200 µM
  IC50: > 200 µM

## Cc1cccc(-c2nc(-c3cnccn3)n(Cc3ccccc3)n2)c1
  EC50: > 200 µM
  IC50: > 200 µM

## COC(OC)[C@@H](C)[C@H](O)[C@](C)(O)C1OC(C)(C)OC(C(C)C=C(C)C)C1C (stereo partly specified)
  outcome: inactive

## CCCCCCC1=C(O)C(=O)C(CCCCCC)=C(O)C1=O
  EC50: > 69.2 µM
  IC50: 11.7 µM

## O=C(Cc1ccccc1)NN1C(=O)C(Cl)C1c1ccccc1 (stereo unspecified)
  EC50: > 31.6 µM
  IC50: > 31.6 µM

## CCSC(=O)n1nc(Cl)c2cc([N+](=O)[O-])ccc21
  EC50: > 200 µM
  IC50: > 200 µM

## O=C=Nc1cccc(S(=O)(=O)c2cccc(N=C=O)c2)c1
  EC50: > 200 µM
  IC50: > 200 µM

## Cc1ccc(NC(=O)CC/C(CC(=O)c2ccc(F)cc2)=N\NC(=O)C(=O)NN)cc1C
  EC50: > 11.7 µM
  IC50: > 11.7 µM

## CCN(CC)CCNC(=O)c1ccccc1NC(=O)C(=O)Nc1ccccc1C(=O)NCCN(CC)CC
  EC50: > 6.92 µM
  IC50: > 6.92 µM

## COc1ccc(/C=C/c2ccc3ccccc3n2)cc1OC
  EC50: > 200 µM
  IC50: 36.3 µM

## Cc1nc2ccccc2c(=O)n1NC(=O)Cc1ccccc1
  EC50: > 200 µM
  IC50: > 200 µM

## CCOC(=O)c1sc2c(c1OC(=O)c1cc(OC)c(OC)c(OC)c1)c(=O)n(-c1ccccc1)c(=S)n2-c1ccccc1
  EC50: > 200 µM
  IC50: 4.47 µM

## O=C(c1ccc(Cl)cc1Cl)N(C(=O)N1CCC(c2ccccc2)CC1)c1ccccc1
  EC50: > 200 µM
  IC50: > 200 µM

## COc1cccc(/C=N/[N-]C(N)=O)c1[O-].[OH3+].[Pd+2]
  EC50: > 21.9 µM
  IC50: > 21.9 µM

## COc1ccc(C(O)C(C)C(O)(C(F)(F)F)C(F)(F)F)cc1 (stereo unspecified)
  EC50: > 200 µM
  IC50: 95.5 µM

## CC(=O)C(N=Nc1ncn[nH]1)C(C)=O
  EC50: > 200 µM
  IC50: 170 µM

## NCC1OC(OC2C(CO)OC(OC3C(O)C(N)CC(N)C3OC3OC(CN)C(O)C(O)C3N)C2O)C(N)C(O)C1O (stereo unspecified)
  outcome: inactive

## CCCCCCCCCCCCCC1CCC(CC)N1 (stereo unspecified)
  EC50: > 331 µM
  IC50: > 331 µM

## O=C(COC(=O)c1cccc2c(=O)c3ccccc3[nH]c12)Nc1ccccc1
  outcome: inactive

## CC12CCC(=O)N1[C@@H](c1ccccc1)[C@@H](c1ccccc1)O2 (stereo partly specified)
  EC50: > 234 µM
  IC50: > 234 µM

## Cc1cc2nc3c(=O)n(C)c(=O)nc-3n(-c3ccc(Cl)cc3)c2cc1C
  outcome: inactive

## CC(C)NC(=O)OCc1nnn2c1C(OC(=O)NC(C)C)CC2 (stereo unspecified)
  outcome: inactive

## N#Cc1c(N)c2c(c(-c3ccccc3)c1-c1ccccc1)C(=O)N(O)C2=O
  EC50: > 200 µM
  IC50: 44.7 µM

## O=C1C(=c2ccc(=C3C(=O)c4ccc([N+](=O)[O-])cc4[N+]3=O)cc2)N([O-])c2cc([N+](=O)[O-])ccc21
  EC50: > 11.5 µM
  IC50: > 11.5 µM

## COc1c(C(=O)NCCN(CCNC(=O)c2cccc(-c3cccc(C(=O)N(C)C)c3OC)c2OC)CCNC(=O)c2cccc(-c3cccc(C(=O)N(C)C)c3OC)c2OC)cccc1-c1cccc(C(=O)N(C)C)c1OC
  outcome: inactive

## O=C(O)c1cc(O)c2c(c1)C([C@@H]1c3cccc(O)c3C(=O)c3c(O)cc(C(=O)O)cc31)c1cccc(O)c1C2=O (stereo partly specified)
  EC50: > 200 µM
  IC50: 31.6 µM

## CCN(C(=O)c1ccccc1C)C(c1ccccc1)P(=O)(c1ccccc1)c1ccccc1 (stereo unspecified)
  outcome: inactive

## CCc1n[nH]c(=O)n1NC(=O)c1ccccc1C(=O)O
  EC50: > 200 µM
  IC50: > 200 µM

## CCOC(=O)N1N(c2ccccc2)C(=O)C1(c1ccccc1)c1ccccc1
  EC50: > 200 µM
  IC50: 135 µM

## CCC1CC2C(=O)N(c3ccccc3)C(=O)C2c2[nH]c3ccccc3c21 (stereo unspecified)
  outcome: inactive

## C=C(C)C(=Nc1ccc(Cl)c(Cl)c1)N(C)C
  outcome: inactive

## CC(C)(C)OC(=O)NNC(=O)C1Cc2ccccc2OC1=O (stereo unspecified)
  EC50: > 200 µM
  IC50: > 200 µM

## CCOP(=O)(OCC)C(=Cc1ccccc1)P(=O)(OCC)OCC
  EC50: > 661 µM
  IC50: 398 µM

## COc1ccc(C(=O)/C=C/c2ccc(OCCCOc3ccc(/C=C/C(=O)c4ccc(OC)c(OC)c4)cc3)cc2)cc1OC
  EC50: > 200 µM
  IC50: > 200 µM

## Cc1cccc(Nc2nc(NNC(=O)Cc3ccccc3)nc(NNC(=O)c3ccncc3)n2)c1
  EC50: > 100 µM
  IC50: > 100 µM

## CCOC(=O)c1c(C)[nH]c(=S)c(C#N)c1-c1ccco1
  EC50: > 200 µM
  IC50: 81.3 µM

## O=C1/C(=C\c2cccc(Oc3ccccc3)c2)S(=O)(=O)C(c2ccccc2)N1c1ccccc1Cl (stereo unspecified)
  EC50: > 2 µM
  IC50: 0.0427 µM

## COc1ccc(Cc2nn(C3OC(COC(C)=O)C(OC(C)=O)C(OC(C)=O)C3OC(C)=O)c(=S)n(-c3ccc(OC)cc3)c2=O)cc1 (stereo unspecified)
  outcome: inactive

## Oc1ccc2c(c1)OCC1c3ccccc3OC21 (stereo unspecified)
  outcome: inactive

## Cc1cc2nc3c(C(O)C(O)C(O)CO)nn(-c4ccc(F)cc4)c3nc2cc1C (stereo unspecified)
  EC50: 89.1 µM
  IC50: > 200 µM

## NC(=O)c1c([N+](=O)[O-])cc(C(F)(F)F)cc1[N+](=O)[O-]
  outcome: inactive

## COC(=O)c1c2c(cc3c1CC1(C3)Cc3ccc4c(c3C1=O)CCC4)CCC2 (stereo unspecified)
  EC50: > 200 µM
  IC50: 4.17 µM

## CO[C@H]1/C=C/O[C@@]2(C)Oc3c(C)c(O)c4c(O)c(c(/C=N/N5C(C)CN(Cc6ccccc6)CC5C)c(O)c4c3C2=O)NC(=O)/C(C)=C\C=C\[C@H](C)[C@H](O)[C@@H](C)[C@@H](O)[C@@H](C)[C@H](OC(C)=O)[C@@H]1C (stereo partly specified)
  EC50: > 200 µM
  IC50: 9.77 µM

## O=C(Nc1ccc(-c2cccs2)oc1=O)c1ccccc1
  EC50: > 200 µM
  IC50: > 200 µM

## CC1=NN(c2nc(N)nc(-c3sccc3N)n2)C(C)(C)C1
  EC50: > 200 µM
  IC50: 77.6 µM

## CCCc1cc(=O)oc2c3c(c4c(c12)OC(C)(C)CC4)O[C@H](C)C(C)C3=O (stereo partly specified)
  EC50: 12.3 µM
  IC50: 186 µM

## O=C(Nc1sccc1S(=O)(=O)c1ccccc1)c1cccnc1
  EC50: > 200 µM
  IC50: 4.47 µM

## CC(=O)C(=[N+]=[N-])C(=O)NCC#N
  EC50: > 200 µM
  IC50: > 200 µM

## Clc1ccc(C2=NON(c3ncccn3)C3N=CC=CN23)cc1 (stereo unspecified)
  EC50: > 15.8 µM
  IC50: > 15.8 µM

## Cc1ccc(S(=O)(=O)Nc2cccc(C)c2C)cc1
  outcome: inactive

## c1ccc(NCn2cnc3ccccc32)cc1
  outcome: inactive

## COc1c(Cl)cc(C(=CCNC(=O)C[C@H]2CC[C@@]3(C)[C@@H](CC[C@@H]4[C@@H]3CC[C@]3(C)[C@@H](CC(=O)NCC=C(c5cc(Cl)c(OC)c(C(=O)O)c5)c5cc(Cl)c(OC)c(C(=O)O)c5)CC[C@@H]43)C2)c2cc(Cl)c(OC)c(C(=O)O)c2)cc1C(=O)O
  EC50: 42.7 µM
  IC50: 186 µM

## CON(C)c1nc2ccccc2o1
  EC50: > 200 µM
  IC50: 107 µM

## CC(=O)OCC(OC(C)=O)C(OC(C)=O)C(/C=N\Nc1nc2ccccc2c(=O)[nH]1)=N\Nc1nc2ccccc2c(=O)[nH]1 (stereo unspecified)
  EC50: > 200 µM
  IC50: > 200 µM

## [CH3][Sn]([CH3])([S]CCS(=O)(=O)O)[S]CCS(=O)(=O)O
  EC50: > 200 µM
  IC50: 95.5 µM

## CC(=O)NC(CCC(=O)OC(C)(C)C)C(=O)NC(CCC(=O)OC(C)(C)C)C(=O)NC(Cc1ccc([N+](=O)[O-])cc1)C(=O)NC(CCCCNC(=O)OC(C)(C)C)C(=O)NC(CCCCNC(=O)OC(C)(C)C)C(=O)NCC(=O)O (stereo unspecified) (Ac-E(OtBu)E(OtBu)[Phe(4-NO2)]K(Boc)K(Boc)G-OH; configuration not given here)
  EC50: > 200 µM
  IC50: > 200 µM

## Cc1ccc(C(=O)OCC(C)C)cc1N=NN(C)C
  EC50: > 27.5 µM
  IC50: > 27.5 µM

## Cc1nc(N)nc(N)c1N1CCN(c2ccc(S(N)(=O)=O)cc2)CC1
  EC50: > 200 µM
  IC50: 0.398 µM

## COC(=O)N/N=C(\C)C(CN1CCOCC1)C(c1ccccc1)c1cc2ccccc2oc1=O (stereo unspecified)
  EC50: > 83.2 µM
  IC50: 61.7 µM

## CC(C)NCC(O)COC(=O)c1cccs1 (stereo unspecified)
  outcome: inactive

## COC1=CC(=C(c2ccc(O)c(OC)c2)c2ccc(O)c(OC)c2)C=CC1=O
  EC50: > 200 µM
  IC50: 3.55 µM

## COc1ccc(CC#N)c(OCc2ccccc2)c1
  EC50: > 53.7 µM
  IC50: 17.8 µM

## CC1CC(c2ccc([N+](=O)[O-])cc2)=Nc2ccccc2S1 (stereo unspecified)
  EC50: > 9.12 µM
  IC50: > 9.12 µM

## O=c1[nH]nc(Cc2ccccc2)n1O
  EC50: > 200 µM
  IC50: > 200 µM

## CC/C=C\C/C=C\C/C=C\C/C=C\CCC(=O)OC(COC(=O)CCCCCCC/C=C\C/C=C\C/C=C\CC)COC1OC(CO)C(O)C(O)C1O (stereo unspecified)
  EC50: > 38 µM
  IC50: > 38 µM

## CSC(=S)CC(O)[C@@H]1CC2c3ccccc3C1c1ccccc12 (stereo partly specified)
  EC50: > 200 µM
  IC50: 3.47 µM

## CCN(CC)CCNC(=O)c1ccccc1Nc1c(Cl)cccc1Cl
  EC50: > 200 µM
  IC50: 27.5 µM

## CC1=NN(C(=O)c2ccccc2O)C(=O)/C1=C/c1cccc([N+](=O)[O-])c1
  EC50: > 141 µM
  IC50: 0.0977 µM

## O=S(=O)(O)c1ccc(N=Nc2cc(S(=O)(=O)O)c3ccccc3c2O)c2ccccc12
  EC50: > 100 µM
  IC50: > 100 µM

## CCN(C(=O)N[C@H](C(=O)N[C@@H](CSC)C(=O)N[C@@H](C)C(=O)OC)C(C)C)c1ccccc1
  outcome: inactive

## Cc1cc(OP2(=O)NCc3ccncc3O2)ccc1Cl (stereo unspecified)
  EC50: > 200 µM
  IC50: > 200 µM

## Cc1cn(CC2=NCCCN2)c(=O)[nH]c1=O
  EC50: > 200 µM
  IC50: > 200 µM

## Nc1ccc(/C=C/c2cccc3cccnc23)cc1
  EC50: 0.0631 µM
  IC50: > 200 µM
